Experimental data from patent US12202835B2, “Substituted aromatic ring-linked dioxinoquinazolines and dioxinoquinolines as kinase inhibitors” (BEIJING SCITECH-MQ PHARMACEUTICALS LIMITED, priority 2018, dated 2025).

system: Ba/F3 LMNA-NTRK1-G595R cells; experiment: Assay for inhibiting the proliferation of Ba/F3 LMNA-NTRK1-G595R cells (CCK-8); format: cell-based; settings: Mus musculus, BaF3
Procedure, shortened: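 Cells seeded in 96-well plates overnight, then exposed 72 h to 9 three-fold dilutions of compound (0.25% DMSO final). Viability by CCK-8 (1-2 h at 37° C., OD 450 nm), survival normalized to untreated and cell-free blanks; IC50 by curve fitting.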

SMILES | IC50 [nM]
Cn1cc(C(=O)Nc2ccc(Oc3ncnc4cc(OCCCN5CCOCC5)c5c(c34)OCCO5)c(F)c2)c(=O)n(-c2ccc(F)cc2)c1=O [Example 30, N-(3-fluoro-4-((5-(3-morpholinopropoxy)-2,3-dihydro-[1,4]dioxino[2,3-f]quinazolin-10-yl)oxy)phenyl)-3-(4-fluorophenyl)-1-methyl-2,4-dioxo-1,2,3,4-tetrahydropyrimidine-5-carboxamide] | 200 to 1000
CCn1cc(C(=O)Nc2cc(F)c(Oc3ccnc4cc(OCCOC)c5c(c34)OCCO5)cc2C)c(=O)n(-c2ccc(F)cc2)c1=O [Example 180, N-(5-fluoro-4-((5-(2-methoxyethoxy)-2,3-dihydro-[1,4]dioxino[2,3-f]quinolin-10-yl)oxy)-2-methylphenyl)-3-(4-fluorophenyl)-1-ethyl-2,4-dioxo-1,2,3,4-tetrahydropyrimidine-5-carboxamide] | ≤ 50
COc1cc2nccc(Oc3cc(C)c(NC(=O)c4cn(C)c(=O)n(-c5ccc(F)cc5)c4=O)cc3F)c2c2c1OCCO2 [Example 177, N-(5-fluoro-4-((5-methoxy-2,3-dihydro-[1,4]dioxino[2,3-f]quinolin-10-yl)oxy)-2-methylphenyl)-3-(4-fluorophenyl)-1-methyl-2,4-dioxo-1,2,3,4-tetrahydropyrimidine-5-carboxamide] | ≤ 50
CCn1cc(C(=O)Nc2ccc(Oc3ccnc4cc(OC)c5c(c34)OCCO5)c(F)c2)c(=O)n(-c2ccc(F)cc2)c1=O [Example 37, N-(3-fluoro-4-((5-methoxy-2,3-dihydro-[1,4]dioxino[2,3-f]quinolin-10-yl)oxy)phenyl)-3-(4-fluorophenyl)-1-ethyl-2,4-dioxo-1,2,3,4-tetrahydropyrimidine-5-carboxamide] | 50 to 200
COc1cc2nccc(Oc3ccc(NC(=O)c4cn(C)c(=O)n(-c5ccc(F)cc5)c4=O)c(F)c3)c2c2c1OCCO2 [Example 153, N-(2-fluoro-4-((5-methoxy-2,3-dihydro-[1,4]dioxino[2,3-f]quinolin-10-yl)oxy)phenyl)-3-(4-fluorophenyl)-1-methyl-2,4-dioxo-1,2,3,4-tetrahydropyrimidine-5-carboxamide] | ≤ 50
CC(C)n1cc(C(=O)Nc2ccc(Oc3ccnc4cc(OCC(C)(C)O)c5c(c34)OCCO5)c(F)c2)c(=O)n(-c2ccc(F)cc2)c1=O [Example 122, N-(3-fluoro-4-((5-(2-hydroxy-2-methylpropoxy)-2,3-dihydro-[1,4]dioxino[2,3-f]quinolin-10-yl)oxy)phenyl)-3-(4-fluorophenyl)-1-isopropyl-2,4-dioxo-1,2,3,4-tetrahydropyrimidine-5-carboxamide] | 200 to 1000
CCn1cc(C(=O)Nc2ccc(Oc3ccnc4cc(OCCCN5CCCCC5)c5c(c34)OCCO5)c(F)c2)c(=O)n(-c2ccc(F)cc2)c1=O [Example 41, N-(3-fluoro-4-((5-(3-(piperidin-1-yl)propoxy)-2,3-dihydro-[1,4]dioxino[2,3-f]quinolin-10-yl)oxy)phenyl)-3-(4-fluorophenyl)-1-ethyl-2,4-dioxo-1,2,3,4-tetrahydropyrimidine-5-carboxamide] | 50 to 200

Now from value to compound:

IC50 [nM] | SMILES
≤ 50 | COc1cc2nccc(Oc3ccc(NC(=O)c4cn(C)c(=O)n(-c5ccc(F)cc5)c4=O)c(Cl)c3)c2c2c1OCCO2 [Example 125, N-(2-chloro-4-((5-methoxy-2,3-dihydro-[1,4]dioxino[2,3-f]quinolin-10-yl)oxy)phenyl)-3-(4-fluorophenyl)-1-methyl-2,4-dioxo-1,2,3,4-tetrahydropyrimidine-5-carboxamide]
50 to 200 | COCCOc1cc2nccc(Oc3ccc(NC(=O)c4cn(C)c(=O)n(-c5ccc(F)cc5)c4=O)cc3F)c2c2c1OCCO2 [Example 42, N-(3-fluoro-4-((5-(2-methoxyethoxy)-2,3-dihydro-[1,4]dioxino[2,3-f]quinolin-10-yl)oxy)phenyl)-3-(4-fluorophenyl)-1-methyl-2,4-dioxo-1,2,3,4-tetrahydropyrimidine-5-carboxamide]
≤ 50 | COCCOc1cc2nccc(Oc3cc(C)c(NC(=O)c4cn(C)c(=O)n(-c5ccc(F)cc5)c4=O)cc3F)c2c2c1OCCO2 [Example 179, N-(5-fluoro-4-((5-(2-methoxyethoxy)-2,3-dihydro-[1,4]dioxino[2,3-f]quinolin-10-yl)oxy)-2-methylphenyl)-3-(4-fluorophenyl)-1-methyl-2,4-dioxo-1,2,3,4-tetrahydropyrimidine-5-carboxamide]
200 to 1000 | CCn1cc(C(=O)Nc2ccc(Oc3ccnc4cc(OCCOC)c5c(c34)OCCO5)cc2)c(=O)n(-c2ccc(F)cc2)c1=O [Example 148, N-(4-((5-(2-methoxyethoxy)-2,3-dihydro-[1,4]dioxino[2,3-f]quinolin-10-yl)oxy)phenyl)-3-(4-fluorophenyl)-1-ethyl-2,4-dioxo-1,2,3,4-tetrahydropyrimidine-5-carboxamide]
